Reference: ChEMBL document CHEMBL3588836, “Development of Quinoline-2,4(1H,3H)-diones as Potent and Selective Ligands of the Cannabinoid Type 2 Receptor” (J Med Chem, 2015)
pEC50, pIC50: −log10 of the molar value.

Key:
Cannabinoid receptor 1 [1] = target: T1, Cannabinoid receptor 1 (Homo sapiens, UniProt P21554); type: functional, cell-based, CHO
Cannabinoid receptor 2 [2] = target: T2, Cannabinoid receptor 2 (Homo sapiens, UniProt P34972); test: Antagonist activity against CB2R (unknown origin) CHO cells stably expressing Galpha16 assessed as inhibition of CP55940-induced increase in intracellular calcium level pre-treated 10 mins before CP55940 stimulation by microplate reader based assay; type: functional, cell-based
T2 sequence (P34972 whole entry): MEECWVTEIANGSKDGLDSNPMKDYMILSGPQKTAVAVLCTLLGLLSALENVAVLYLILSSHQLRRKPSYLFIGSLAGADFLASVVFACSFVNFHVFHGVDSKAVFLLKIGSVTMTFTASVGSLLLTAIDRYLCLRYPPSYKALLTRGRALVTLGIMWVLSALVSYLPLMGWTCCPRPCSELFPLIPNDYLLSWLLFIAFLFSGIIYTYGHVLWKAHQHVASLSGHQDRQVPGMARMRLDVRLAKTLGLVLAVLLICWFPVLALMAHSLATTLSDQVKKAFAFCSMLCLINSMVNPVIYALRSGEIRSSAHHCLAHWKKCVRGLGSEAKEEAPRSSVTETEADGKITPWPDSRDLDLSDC

CHO = test: Selectivity index, ratio of EC50 for CB1R (unknown origin) CHO cells stably expressing Galpha16 to EC50 for CB2R (unknown origin) CHO cells stably expressing Galpha16; type: cell-based; settings: Homo sapiens
Cannabinoid receptor 2 [3] = target: T2, Cannabinoid receptor 2; test: Agonist activity at CB2R (unknown origin) CHO cells stably expressing Galpha16 assessed as increase in intracellular calcium level by microplate reader based assay relative to CP55940; type: functional, cell-based
Cannabinoid receptor 2 [4] = target: T2, Cannabinoid receptor 2; test: Agonist activity at CB2R (unknown origin) CHO cells stably expressing Galpha16 assessed as increase in intracellular calcium level by microplate reader based assay; type: functional, cell-based; settings: for pEC50: read-out: EC50; for EC50: read-out: pEC50 (converted)
Cannabinoid receptor 1 [5] = target: T1, Cannabinoid receptor 1; test: Agonist activity at CB1R (unknown origin) CHO cells stably expressing Galpha16 assessed as increase in intracellular calcium level by microplate reader based assay; type: functional, cell-based

T1 sequence (P21554 whole entry): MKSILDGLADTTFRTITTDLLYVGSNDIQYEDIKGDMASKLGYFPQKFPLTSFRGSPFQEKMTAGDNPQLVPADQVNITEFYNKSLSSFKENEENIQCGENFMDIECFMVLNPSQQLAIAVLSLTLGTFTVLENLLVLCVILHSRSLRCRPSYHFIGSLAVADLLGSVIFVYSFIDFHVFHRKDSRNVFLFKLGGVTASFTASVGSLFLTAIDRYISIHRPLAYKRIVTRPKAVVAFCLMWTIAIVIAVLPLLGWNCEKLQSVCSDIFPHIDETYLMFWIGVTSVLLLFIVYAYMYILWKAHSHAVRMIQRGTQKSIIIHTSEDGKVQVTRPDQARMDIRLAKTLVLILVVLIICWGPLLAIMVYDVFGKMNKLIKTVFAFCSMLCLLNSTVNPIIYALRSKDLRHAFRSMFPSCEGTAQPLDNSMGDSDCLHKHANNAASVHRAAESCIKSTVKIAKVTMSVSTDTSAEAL

Compound | pIC50 (Cannabinoid receptor 1 [1]) | pIC50 (Cannabinoid receptor 2 [2]) | Ratio EC50 (CHO) | Emax (Cannabinoid receptor 2 [3]) [%] | pEC50 (Cannabinoid receptor 2 [4]) | EC50 (Cannabinoid receptor 2 [4]) [nM] | pEC50 (Cannabinoid receptor 1 [5])
CCCCCN1C(=O)/C(=C/NC2CCCCC2)C(=O)c2cc(OC(F)(F)F)ccc21 | < 5.00 | < 5.00 | – | – | – | – | –
CCCCN1C(=O)/C(=C/NC2CCCCC2)C(=O)c2cccc(CC)c21 | – | – | > 12.5 | 86.9 | 6.10 | 800 | < 5.00
CCCCN1C(=O)/C(=C/NC(C)C)C(=O)c2cccc(C)c21 | – | – | – | – | < 5.00 | – | < 5.00
CCCCCN1C(=O)/C(=C/NC2CCCCC2)C(=O)c2c(OC)cccc21 | – | – | – | – | < 5.00 | – | < 5.00
CCCCN1C(=O)/C(=C/Nc2ccccn2)C(=O)c2cccc(C)c21 | – | – | > 4.18 | 47.2 | 5.62 | – | < 5.00
CCCCN1C(=O)/C(=C/Nc2ccc(F)cc2)C(=O)c2cccc(C)c21 | – | – | – | – | < 5.00 | – | < 5.00
CCCCCN1C(=O)/C(=C/NC2CCCCC2)C(=O)c2cccc(CC)c21 | – | – | – | – | < 5.00 | – | < 5.00
CCCCCCN1C(=O)/C(=C/NC2CCCCC2)C(=O)c2cc(OC)ccc21 | < 5.00 | < 5.00 | – | – | – | – | –
CCCCN/C=C1\C(=O)c2cccc(C)c2N(CCCC)C1=O | – | – | > 110 | 64.7 | 7.04 | 91 | < 5.00
CCCCCN1C(=O)/C(=C/NC2CCCCC2)C(=O)c2cc(C(F)(F)F)ccc21 | < 5.00 | < 5.00 | – | – | – | – | –
CCCCCN1C(=O)/C(=C/NC2CCCCC2)C(=O)c2ccccc21 | – | – | > 21.2 | 101 | 6.33 | – | < 5.00
C=CCCN1C(=O)/C(=C/NC2CCCCC2)C(=O)c2cccc(C)c21 | – | – | > 13.4 | 135 | 6.13 | – | < 5.00
CCCCCN1C(=O)/C(=C/NC2CCCCC2)C(=O)c2ccc(Cl)cc21 | < 5.00 | < 5.00 | – | – | – | – | –
CCCCN1C(=O)/C(=C/NCC2CCC2)C(=O)c2cccc(C)c21 | – | – | > 45.5 | 87.7 | 6.66 | – | < 5.00
CCCCCN1C(=O)/C(=C/NC2CCCCC2)C(=O)c2cc(C)ccc21 | < 5.00 | < 5.00 | – | – | – | – | –
CCCCN1C(=O)/C(=C/NCC(C)C)C(=O)c2cccc(C)c21 | – | – | > 226 | 99 | 7.35 | 44 | < 5.00
CCCCN1C(=O)/C(=C/NC2CCCC2)C(=O)c2cccc(C)c21 | – | – | > 172 | 129 | 7.24 | – | < 5.00
CCCCN1C(=O)/C(=C/NC2CCCCC2)C(=O)c2c(C)cccc21 | – | – | > 29.3 | 104 | 6.47 | – | < 5.00
CCN1C(=O)/C(=C/NC2CCCCC2)C(=O)c2cccc(C)c21 | – | – | > 0.559 | 95 | 4.75 | – | < 5.00
CCCCN1C(=O)/C(=C/NC(C)(C)C)C(=O)c2cccc(C)c21 | – | – | > 500 | 135 | 7.70 | – | < 5.00
CCCCN1C(=O)/C(=C/NC(C)(C)CC)C(=O)c2cccc(C)c21 | – | – | 26.8 | 158 | 7.12 | 75 | 5.69
CCCCCN1C(=O)/C(=C/NC2CCCCC2)C(=O)c2cc(OC)cc(OC)c21 | < 5.00 | < 5.00 | – | – | – | – | –
CCCCN1C(=O)/C(=C/NN2CCCCC2)C(=O)c2cccc(C)c21 | – | – | > 10.1 | 58 | 6.00 | – | < 5.00
CCCCN1C(=O)/C(=C/NC2CCCCC2)C(=O)c2cccc(Cl)c21 | – | – | – | – | < 5.00 | – | < 5.00

Compound | pIC50 (Cannabinoid receptor 1 [1]) | pIC50 (Cannabinoid receptor 2 [2]) | Ratio EC50 (CHO) | Emax (Cannabinoid receptor 2 [3]) [%] | pEC50 (Cannabinoid receptor 2 [4]) | EC50 (Cannabinoid receptor 2 [4]) [nM] | pEC50 (Cannabinoid receptor 1 [5])
CCCCN1C(=O)/C(=C/NCCC)C(=O)c2cccc(C)c21 | – | – | – | – | < 5.00 | – | < 5.00
CCCCN1C(=O)/C(=C/NC2CCCCC2)C(=O)c2ccccc21 | – | – | > 6.33 | 185 | 5.80 | – | < 5.00
CCCCN1C(=O)/C(=C/NC2CCCCC2)C(=O)c2cccc(OC)c21 | – | – | > 7.04 | 86.1 | 5.85 | – | < 5.00
CCCCN1C(=O)/C(=C/NC(C)CCC)C(=O)c2cccc(C)c21 (stereo unspecified) | – | – | > 86.2 | 53.6 | 6.94 | – | < 5.00
Cc1cccc2c1N(CC1CC1)C(=O)/C(=C/NC1CCCCC1)C2=O | – | – | > 14.9 | 111 | 6.17 | – | < 5.00
CCCCN1C(=O)/C(=C/NCc2cccnc2)C(=O)c2cccc(C)c21 | – | – | – | – | < 5.00 | – | < 5.00
CCCCN1C(=O)/C(=C/NC23CC4CC(CC(C4)C2)C3)C(=O)c2cccc(C)c21 | – | – | > 31.5 | 137 | 6.50 | – | < 5.00
CCCN1C(=O)/C(=C/NC(C)(C)C)C(=O)c2cccc(C)c21 | – | – | > 275 | 126 | 7.44 | – | < 5.00
CCCCCN1C(=O)/C(=C/NC2CCCCC2)C(=O)c2cc(C(C)(C)C)ccc21 | < 5.00 | < 5.00 | – | – | – | – | –
CCCCN1C(=O)/C(=C/NC(C)C(C)C)C(=O)c2cccc(C)c21 (stereo unspecified) | – | – | > 121 | 120 | 7.08 | 83 | < 5.00
C=CCCN1C(=O)/C(=C/NC(C)(C)C)C(=O)c2cccc(C)c21 | – | – | > 133 | 92.6 | 7.12 | – | < 5.00
CCCCN1C(=O)/C(=C/NN2CCOCC2)C(=O)c2cccc(C)c21 | – | – | > 21 | 78.7 | 6.32 | – | < 5.00
CCCCN1C(=O)/C(=C/N[C@H]2CC[C@H](O)CC2)C(=O)c2cccc(C)c21 | – | – | – | – | < 5.00 | – | < 5.00
CCCCN1C(=O)/C(=C/NC2CC2)C(=O)c2cccc(C)c21 | – | – | > 19.9 | 81.8 | 6.30 | – | < 5.00
Cc1cccc2c1N(CC1CC1)C(=O)/C(=C/NC(C)(C)C)C2=O | – | – | > 96.2 | 140 | 6.98 | – | < 5.00
O=C(NCC1CCOCC1)c1cnc(Nc2ccc(Cl)cc2Cl)nc1C(F)(F)F [GW842166X] | – | – | > 22.9 | 91.6 | 6.36 | – | < 5.00
CCCCN1C(=O)/C(=C/NC(C)(C)CO)C(=O)c2cccc(C)c21 | – | – | 13.5 | 127 | 7.38 | 41 | 6.25
CCCCN1C(=O)/C(=C/NC(CC)CC)C(=O)c2cccc(C)c21 | – | – | > 88.5 | 137 | 6.95 | 112 | < 5.00
CCCCCN1C(=O)/C(=C/NC2CCCCC2)C(=O)c2cccc(OC)c21 | – | – | – | – | < 5.00 | – | < 5.00
CCCCN1C(=O)/C(=C/NCc2ccc(F)cc2)C(=O)c2cccc(C)c21 | – | – | – | – | < 5.00 | – | < 5.00
CCCN1C(=O)/C(=C/NC2CCCCC2)C(=O)c2cccc(C)c21 | – | – | > 20.1 | 68.2 | 6.30 | – | < 5.00
CCCCCN1C(=O)/C(=C/NC2CCCCC2)C(=O)c2cccc(C)c21 | – | – | > 31.3 | 70.3 | 6.49 | – | < 5.00
CCCCN1C(=O)/C(=C/NCC2CC2)C(=O)c2cccc(C)c21 | – | – | > 78.7 | 43.4 | 6.90 | – | < 5.00
